Results from ChEMBL document CHEMBL1201862, “PubChem BioAssay data set” (2004).
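Cultured in 96-well plates, cells were exposed to test compound for 48 hours across five concentrations. The concentration for 50% growth inhibition is given as GI50.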 Activity calls are given as the source filed them. No stated cut-off is given here; in the data, active = GI50 up to about 1.1 µM and inactive = higher.

Legend:
Experiment in all cases: growth of human tumour cells (NCI), 48 h
NCI-H23 = tested on: NCI-H23
786-0 = tested on: 786-0
HCC 2998 = tested on: HCC 2998
MOLT-4 = tested on: MOLT-4
OVCAR-5 = tested on: OVCAR-5
RXF 393 = tested on: RXF 393
OVCAR-8 = tested on: OVCAR-8
U-251 = tested on: U-251
SF-295 = tested on: SF-295
RPMI-8226 = tested on: RPMI-8226
CCRF-CEM = tested on: CCRF-CEM
UO-31 = tested on: UO-31
ACHN = tested on: ACHN
COLO 205 = tested on: COLO 205
NCI-H226 = tested on: NCI-H226
SK-MEL-5 = tested on: SK-MEL-5
EKVX = tested on: EKVX
HOP-92 = tested on: HOP-92
SR = tested on: SR

SMILES | GI50 (NCI-H23) | GI50 (786-0) | GI50 (HCC 2998) | GI50 (MOLT-4) | GI50 (OVCAR-5) | GI50 (RXF 393) | GI50 (OVCAR-8) | GI50 (U-251) | GI50 (SF-295) | GI50 (RPMI-8226) | GI50 (CCRF-CEM) | GI50 (UO-31) | GI50 (ACHN) | GI50 (COLO 205) | GI50 (NCI-H226) | GI50 (SK-MEL-5) | GI50 (EKVX) | GI50 (HOP-92) | GI50 (SR)
O=C(CSc1nnc(Cc2ccccc2)o1)Nc1cccc([N+](=O)[O-])c1 | > 100 µM (inactive) | > 100 µM (inactive) | > 100 µM (inactive) | > 100 µM (inactive) | > 100 µM (inactive) | > 100 µM (inactive) | > 100 µM (inactive) | > 100 µM (inactive) | > 100 µM (inactive) | > 100 µM (inactive) | > 100 µM (inactive) | > 100 µM (inactive) | > 100 µM (inactive) | > 100 µM (inactive) | > 100 µM (inactive) | > 100 µM (inactive) |  |  | 
COc1cc(OC)c(C(=O)c2cccs2)cc1N | > 100 µM (inactive) | > 100 µM (inactive) | > 100 µM (inactive) | > 100 µM (inactive) | > 100 µM (inactive) | > 100 µM (inactive) | > 100 µM (inactive) | > 100 µM (inactive) | > 100 µM (inactive) | > 100 µM (inactive) | > 100 µM (inactive) | 96.6 µM (inactive) | > 100 µM (inactive) | > 100 µM (inactive) |  | > 100 µM (inactive) | > 100 µM (inactive) |  | 
O=C(/C=C/c1ccc(O)c(O)c1)NCCc1ccc(-c2ccccc2)cc1 | 68.4 µM (inactive) | 49.7 µM (inactive) | 54.3 µM (inactive) | 41.3 µM (inactive) | 87.7 µM (inactive) | 57.1 µM (inactive) | > 100 µM (inactive) |  | 40.8 µM (inactive) | 39.4 µM (inactive) | 26.5 µM (inactive) | 94.8 µM (inactive) |  | 78.3 µM (inactive) |  | 45.8 µM (inactive) | > 100 µM (inactive) |  | 
COc1cc(NC(C)=O)c2[nH]c3c(C)cc(NC(C)=O)c(C)c3c2c1 | > 100 µM (inactive) | > 100 µM (inactive) | > 100 µM (inactive) | > 100 µM (inactive) |  | > 100 µM (inactive) | > 100 µM (inactive) | > 100 µM (inactive) | > 100 µM (inactive) | > 100 µM (inactive) | > 100 µM (inactive) | > 100 µM (inactive) | > 100 µM (inactive) | > 100 µM (inactive) | > 100 µM (inactive) | > 100 µM (inactive) | > 100 µM (inactive) | > 100 µM (inactive) | 
O=C1c2ccccc2C(=O)N1Cc1ccccc1-c1c2nc(c(-c3ccccc3CN3C(=O)c4ccccc4C3=O)c3ccc([nH]3)c(-c3ccccc3CN3C(=O)c4ccccc4C3=O)c3nc(c(-c4ccccc4CN4C(=O)c5ccccc5C4=O)c4ccc1[nH]4)C=C3)C=C2 | > 100 µM (inactive) | > 100 µM (inactive) |  | > 100 µM (inactive) | > 100 µM (inactive) | > 100 µM (inactive) | > 100 µM (inactive) | > 100 µM (inactive) | 72.1 µM (inactive) | > 100 µM (inactive) | > 100 µM (inactive) | > 100 µM (inactive) | > 100 µM (inactive) | 74 µM (inactive) | > 100 µM (inactive) | 52.7 µM (inactive) |  | > 100 µM (inactive) | > 100 µM (inactive)
C/C(CC(=O)Nc1ccc(Cl)cc1)=N\NC(=O)C[n+]1ccccc1 | > 100 µM (inactive) | > 100 µM (inactive) | > 100 µM (inactive) | > 100 µM (inactive) | > 100 µM (inactive) | > 100 µM (inactive) | > 100 µM (inactive) | > 100 µM (inactive) | > 100 µM (inactive) | > 100 µM (inactive) | > 100 µM (inactive) | > 100 µM (inactive) | > 100 µM (inactive) | > 100 µM (inactive) | > 100 µM (inactive) | > 100 µM (inactive) | > 100 µM (inactive) | > 100 µM (inactive) | 
C/C(=C/C(=O)Nc1ccccc1)Nc1onc(C)c1C | > 100 µM (inactive) |  | > 100 µM (inactive) | > 100 µM (inactive) | > 100 µM (inactive) | > 100 µM (inactive) | > 100 µM (inactive) | > 100 µM (inactive) | > 100 µM (inactive) | > 100 µM (inactive) | > 100 µM (inactive) | > 100 µM (inactive) |  | > 100 µM (inactive) | > 100 µM (inactive) | > 100 µM (inactive) | > 100 µM (inactive) | > 100 µM (inactive) | 
COC(=O)C(CC(C)C)NC(=O)NC12CC3CC(CC(F)(C3)C1)C2 (stereo unspecified) | > 100 µM (inactive) | > 100 µM (inactive) | 29.3 µM (inactive) | > 100 µM (inactive) | > 100 µM (inactive) | > 100 µM (inactive) | > 100 µM (inactive) | > 100 µM (inactive) |  | > 100 µM (inactive) | > 100 µM (inactive) | 46.6 µM (inactive) | > 100 µM (inactive) | > 100 µM (inactive) |  | > 100 µM (inactive) | > 100 µM (inactive) | 50.6 µM (inactive) | 
CC(C)=CCc1c(O)cc(O)c2c1OC(c1ccc(O)cc1)C(O)C2=O (stereo unspecified) | 18.2 µM (inactive) |  | 23.1 µM (inactive) | > 10 µM (inactive) | 28.2 µM (inactive) | 20.3 µM (inactive) | 31.8 µM (inactive) | 25.2 µM (inactive) | 27.5 µM (inactive) |  | > 10 µM (inactive) | 40 µM (inactive) | 25.5 µM (inactive) | 31 µM (inactive) | 21.9 µM (inactive) | 22.3 µM (inactive) | 25.6 µM (inactive) | 18.3 µM (inactive) | 
CC(=O)OC1CC2OC(Cc3ccccc32)O1 (stereo unspecified) | > 100 µM (inactive) | > 100 µM (inactive) | > 100 µM (inactive) | 48.9 µM (inactive) |  | > 100 µM (inactive) | > 100 µM (inactive) | 52.1 µM (inactive) | 65.3 µM (inactive) | > 100 µM (inactive) | 56.1 µM (inactive) | > 100 µM (inactive) | > 100 µM (inactive) | > 100 µM (inactive) | 36.8 µM (inactive) |  | > 100 µM (inactive) | 34 µM (inactive) | > 100 µM (inactive)
COC(=O)C(Cc1nc2ccc(Cl)cc2nc1O)/C(=N/O)C(=O)Nc1cccc(Cl)c1C (stereo unspecified) | > 100 µM (inactive) | > 100 µM (inactive) | > 100 µM (inactive) | > 100 µM (inactive) | > 100 µM (inactive) | 88.1 µM (inactive) | > 100 µM (inactive) | > 100 µM (inactive) | > 100 µM (inactive) | > 100 µM (inactive) | > 100 µM (inactive) | > 100 µM (inactive) | > 100 µM (inactive) | > 100 µM (inactive) | > 100 µM (inactive) | > 100 µM (inactive) | 10.1 µM (inactive) |  | > 100 µM (inactive)
O=C1NC2OC(C(O)CO)C(O)C2O1 (stereo unspecified) | > 100 µM (inactive) | > 100 µM (inactive) | > 100 µM (inactive) | > 100 µM (inactive) | > 100 µM (inactive) |  | > 100 µM (inactive) | > 100 µM (inactive) | > 100 µM (inactive) |  | > 100 µM (inactive) | > 100 µM (inactive) | > 100 µM (inactive) | > 100 µM (inactive) |  | > 100 µM (inactive) | > 100 µM (inactive) | > 100 µM (inactive) | > 100 µM (inactive)
CCOc1cccc2sc(N)nc12 | > 100 µM (inactive) | > 100 µM (inactive) | > 100 µM (inactive) | > 100 µM (inactive) | > 100 µM (inactive) | > 100 µM (inactive) | > 100 µM (inactive) | > 100 µM (inactive) | > 100 µM (inactive) | > 100 µM (inactive) |  | 56.1 µM (inactive) | > 100 µM (inactive) | > 100 µM (inactive) | > 100 µM (inactive) | > 100 µM (inactive) | 49 µM (inactive) | > 100 µM (inactive) | 
Cc1ccccc1NC(=O)C(=O)CC(=O)c1ccc([N+](=O)[O-])cc1 | > 100 µM (inactive) | > 100 µM (inactive) | 23.8 µM (inactive) |  | > 100 µM (inactive) | > 100 µM (inactive) | > 100 µM (inactive) | > 100 µM (inactive) | > 100 µM (inactive) | > 100 µM (inactive) |  | > 100 µM (inactive) | > 100 µM (inactive) | > 100 µM (inactive) | > 100 µM (inactive) |  | > 100 µM (inactive) | > 100 µM (inactive) | 
CCOC(=O)CC1=CSC2=NCCN12 | > 100 µM (inactive) | > 100 µM (inactive) | > 100 µM (inactive) |  | > 100 µM (inactive) | > 100 µM (inactive) | > 100 µM (inactive) | > 100 µM (inactive) | > 100 µM (inactive) |  | > 100 µM (inactive) | > 100 µM (inactive) | > 100 µM (inactive) | > 100 µM (inactive) | > 100 µM (inactive) | > 100 µM (inactive) | > 100 µM (inactive) | > 100 µM (inactive) | 
COc1cccc(N[C@@H]2c3cc4c(cc3C(c3cc(OC)c(O)c(OC)c3)[C@H]3C(=O)OCC32)OCO4)c1 (stereo partly specified) | 0.587 µM (active) |  | 1.36 µM (inactive) | < 0.01 µM (active) | 4.46 µM (inactive) | 1.07 µM (active) | 1.22 µM (inactive) | 0.411 µM (active) | 0.186 µM (active) | 0.186 µM (active) | 0.0546 µM (active) | 0.302 µM (active) |  | 2.11 µM (inactive) | 0.249 µM (active) | 0.8 µM (active) | 2.56 µM (inactive) | 0.346 µM (active) | 
